Experimental data: BindingDB's records for doi:10.1210/en.2002-221074 (National Institute of Diabetes and Digestive and Kidney …, 2003)
pKi: −log10 of the molar value.

Assays:
[1] = target: T1, Thyrotropin-releasing hormone receptor (Xenopus laevis, UniProt Q9DDR1)
T1 sequence (Q9DDR1 whole entry): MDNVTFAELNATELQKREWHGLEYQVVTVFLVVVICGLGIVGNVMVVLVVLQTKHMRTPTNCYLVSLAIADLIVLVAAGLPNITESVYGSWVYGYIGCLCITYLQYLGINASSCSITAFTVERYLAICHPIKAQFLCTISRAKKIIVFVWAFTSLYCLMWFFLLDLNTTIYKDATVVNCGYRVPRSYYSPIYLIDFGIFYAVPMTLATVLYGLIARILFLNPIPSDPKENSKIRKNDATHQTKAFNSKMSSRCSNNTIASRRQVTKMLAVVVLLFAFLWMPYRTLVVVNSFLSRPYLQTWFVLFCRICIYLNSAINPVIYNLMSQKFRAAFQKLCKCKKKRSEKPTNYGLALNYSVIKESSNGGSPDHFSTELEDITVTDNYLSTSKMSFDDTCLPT

[2] = target: T2, Pro-thyrotropin-releasing hormone-B (Xenopus sp., UniProt Q00643)
T2 sequence (Q00643 whole entry): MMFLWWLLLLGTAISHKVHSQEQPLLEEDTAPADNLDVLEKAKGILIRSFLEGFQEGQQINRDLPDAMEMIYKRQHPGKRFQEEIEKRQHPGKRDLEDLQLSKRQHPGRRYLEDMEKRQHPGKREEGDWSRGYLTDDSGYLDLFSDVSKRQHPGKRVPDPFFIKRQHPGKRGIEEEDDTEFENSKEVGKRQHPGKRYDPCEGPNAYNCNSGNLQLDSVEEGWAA

[3] = target: T3, Thyrotropin-releasing hormone receptor (Mus musculus, UniProt P21761)
T3 sequence (P21761 whole entry): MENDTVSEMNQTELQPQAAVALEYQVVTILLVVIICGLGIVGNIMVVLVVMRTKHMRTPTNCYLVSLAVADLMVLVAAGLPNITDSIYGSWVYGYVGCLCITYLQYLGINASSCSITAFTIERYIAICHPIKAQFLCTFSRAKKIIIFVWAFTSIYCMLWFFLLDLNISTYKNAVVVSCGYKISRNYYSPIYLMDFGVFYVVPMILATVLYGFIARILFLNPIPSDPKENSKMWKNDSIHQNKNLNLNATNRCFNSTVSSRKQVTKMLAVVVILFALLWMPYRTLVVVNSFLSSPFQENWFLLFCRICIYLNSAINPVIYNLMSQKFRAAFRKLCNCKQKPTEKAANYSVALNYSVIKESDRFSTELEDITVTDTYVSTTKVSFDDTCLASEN

Row | pKi [1] | pKi [2] | pKi [3] | SMILES
1 | 5.52 | < 5.00 |  | NC(=O)C1CCCN1C(=O)C(Cc1cnc[nH]1)NC(=O)C1CCC(=O)C1 (stereo not given) [Desaza1TRH]
2 | < 5.00 | < 5.00 | < 5.00 | NC(=O)C1CCCN1C(=O)C(Cc1cnc[nH]1)NC(=O)[C@@H]1CCC(=O)C1 (stereo not given in full) [Pyr3TRH]
